Experimental data taken from patent publication US12540131B2 (Merck Sharp & Dohme LLC, priority 2019, dated 2026).

These compounds were tested against GST tagged truncated human mutant G2019S LRRK2 (Homo sapiens (Human), UniProt Q5S007, G2019S) (assay: LRRK2 Km ATP LanthaScreen Assay). Conditions: G2019S LRRK2, 134 μM ATP (Km ATP), mean values.
Assay type: biochemical
Description: General Experimental Information: • Unless otherwise noted, all reactions are magnetically stirred. Unless otherwise noted, when diethyl ether is used in the experiments described below, it is Fisher ACS certified material and is stabilized with BHT. Unless otherwise noted, “concentrated” and/or “solvent removed under reduced pressure” means evaporating the solvent from a solution or mixture using a rotary evaporator or vacuum pump. Unless otherwise noted, flash chromatography is carried out on a Teledyne Isco (Lincoln, NE), Analogix (Burlington, WI), or Biotage (Stockholm, SWE) automated chromatography system using a commercially available cartridge as the column. Columns may be purchased from Teledyne Isco, Analogix, Biotage, Varian (Palo Alto, CA), or Supelco (Bellefonte, PA) and are usually filled with silica gel as the stationary phase. Reverse phase prep-HPLC conditions, where used, can be found at the end of each experimental section. Aqueous solutions were concentrated on a Genevac (Ipswich, ENG) or by freeze-drying/lyophilization. Unless otherwise noted, all LRRK2 pIC50 data presented in tables refers to the LRRK2 G2019S Km ATP LanthaScreen™ assay (Life Technologies Corp., Carlsbad, CA) that is described in the Biological Assay section.
The pIC50 values reported herein were measured as follows.
Biological Assay: LRRK2 Km ATP LanthaScreen™ Assay
Compound potency against LRRK2 kinase activity was determined using LanthaScreen™ technology from Life Technologies Corporation (Carlsbad, CA) using a GST20 tagged truncated human mutant G2019S LRRK2 in the presence of the fluorescein-labeled peptide substrate LRRKtide® (LRRK2 phosphorylated ezrin/radixin/moesin (ERM)), also from Life Technologies. The data presented for the Km ATP LanthaScreen™ Assay represents mean IC50 values based on several test results and may have reasonable deviations depending on the specific conditions and reagents used. Km is the Michaelis constant of an enzyme and is defined as the concentration of native substrate (ATP for a kinase) which permits the enzyme to achieve half Vmax (Vmax=rate of reaction when the enzyme is saturated with substrate). IC50 (half-maximal inhibitory concentration) represents the concentration of inhibitor required to inhibit LRRK2 kinase activity by 50%. Assays were performed in the presence of 134 μM ATP (Km ATP). Upon completion, the assay was stopped, and phosphorylated substrate detected with a terbium (Tb)-labeled anti-pERM antibody (cat. no. PV4898). The compound dose response was prepared by diluting a 10 mM stock of compound to a maximum concentration of 9.99 μM in 100% DMSO, followed by custom fold serial dilution in DMSO nine times. 20 nL of each dilution was spotted via a Labcyte Echo onto a 384-well black-sided plate (Corning 3575) followed by 15 μl of a 1.25 nM enzyme solution in 1× assay buffer (50 mM Tris pH 8.5, 10 mM MgCl2, 0.01% Brij-35, 1 mM EGTA, 2 mM dithiothreitol, 0.05 mM sodium orthovanadate). Following a 15-minute incubation period at RT, the kinase reaction was started with the addition of 5 μl of 400 nM fluorescein-labeled LRRKtide® (LRRK2 phosphorylated ezrin/radixin/moesin (ERM)) peptide substrate and 134 μM ATP solution in 1× assay buffer. The reaction was allowed to progress at ambient temperature for 90 minutes. The reaction was then stopped by the addition of 20 μl of TR-FRET Dilution Buffer (Life Technologies, Carlsbad, CA) containing 2 nM Tb-labeled anti-phospho LRRKtide® (LRRK2 phosphorylated ezrin/radixin/moesin (ERM)) antibody and 10 mM EDTA (Life Technologies, Carlsbad, CA). After an incubation period of 1 h at RT, the plate was read on an EnVision® multimode plate reader (Perkin Elmer, Waltham, MA) with an excitation wavelength of 337 nm (Laser) and a reading emission at both 520 and 495 nm. Compound IC50 values were interpolated from nonlinear regression best-fits of the log of the final compound concentration, plotted as a function of the 520/495-nm emission ratio using activity base “Abase”). […]

Sequence of GST tagged truncated human mutant G2019S LRRK2 (Q5S007 970-2527 G2019S): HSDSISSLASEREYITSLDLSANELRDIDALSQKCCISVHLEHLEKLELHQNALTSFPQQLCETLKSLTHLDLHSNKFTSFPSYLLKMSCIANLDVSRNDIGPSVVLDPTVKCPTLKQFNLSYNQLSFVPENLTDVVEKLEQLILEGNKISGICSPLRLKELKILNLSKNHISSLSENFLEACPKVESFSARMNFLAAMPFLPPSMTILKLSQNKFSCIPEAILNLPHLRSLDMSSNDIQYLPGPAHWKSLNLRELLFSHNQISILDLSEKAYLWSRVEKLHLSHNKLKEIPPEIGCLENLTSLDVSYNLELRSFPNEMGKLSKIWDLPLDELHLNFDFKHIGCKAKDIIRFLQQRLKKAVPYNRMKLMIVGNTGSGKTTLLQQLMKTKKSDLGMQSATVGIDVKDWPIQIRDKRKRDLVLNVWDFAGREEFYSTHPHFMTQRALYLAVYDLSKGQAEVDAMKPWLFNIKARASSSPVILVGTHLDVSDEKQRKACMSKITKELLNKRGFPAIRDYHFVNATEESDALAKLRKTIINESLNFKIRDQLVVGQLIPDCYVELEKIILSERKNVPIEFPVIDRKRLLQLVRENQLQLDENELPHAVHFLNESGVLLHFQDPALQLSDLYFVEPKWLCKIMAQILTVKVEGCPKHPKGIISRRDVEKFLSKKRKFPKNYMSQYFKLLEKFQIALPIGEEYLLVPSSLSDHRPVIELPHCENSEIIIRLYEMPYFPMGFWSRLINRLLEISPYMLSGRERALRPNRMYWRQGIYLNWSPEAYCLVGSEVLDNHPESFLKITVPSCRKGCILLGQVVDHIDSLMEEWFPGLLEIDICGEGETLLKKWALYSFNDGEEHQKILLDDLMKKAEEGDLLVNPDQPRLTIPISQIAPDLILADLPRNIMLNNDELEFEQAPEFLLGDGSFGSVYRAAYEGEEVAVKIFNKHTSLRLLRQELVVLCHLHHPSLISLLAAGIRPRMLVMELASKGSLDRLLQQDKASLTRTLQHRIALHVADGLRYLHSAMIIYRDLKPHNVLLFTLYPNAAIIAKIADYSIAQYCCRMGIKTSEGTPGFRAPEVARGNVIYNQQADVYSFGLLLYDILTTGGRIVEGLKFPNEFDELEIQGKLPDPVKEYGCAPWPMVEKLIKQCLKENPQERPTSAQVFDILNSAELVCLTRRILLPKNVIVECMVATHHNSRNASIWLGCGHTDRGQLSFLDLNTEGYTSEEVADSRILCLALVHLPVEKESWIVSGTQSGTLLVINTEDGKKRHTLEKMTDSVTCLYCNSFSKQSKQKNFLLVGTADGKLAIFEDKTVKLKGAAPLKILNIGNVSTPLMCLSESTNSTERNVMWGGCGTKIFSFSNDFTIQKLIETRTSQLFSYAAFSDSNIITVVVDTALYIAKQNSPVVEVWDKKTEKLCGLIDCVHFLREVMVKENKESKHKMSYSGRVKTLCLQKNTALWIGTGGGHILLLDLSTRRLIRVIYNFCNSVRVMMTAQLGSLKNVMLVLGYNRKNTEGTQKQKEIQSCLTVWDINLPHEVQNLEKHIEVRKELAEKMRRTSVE

SMILES	LRRK2 pIC50
Cc1cc2cnc(Nc3cnn(C4CC4)c3C)nc2cc1[C@H]1CCN(C2COC2)C[C@@H]1F (single isomer, unassigned) [Ex-5.4, (3S,4S) or (3R,4R) N-(1-cyclopropyl-5-methyl-1H-pyrazol-4-yl)-7-[3-fluoro-1-(oxetan-3-yl)piperidin-4-yl]-6-methylquinazolin-2-amine]	8.75
O[C@H]1COC[C@H]1N1CC[C@@H](c2cc3nc(Nc4cnn(C56CC(C5)C6)c4)ncc3cc2Cl)[C@H](F)C1 (single isomer, unassigned) [Ex-4.154, (3S,4S)(3S,4S) or (3S,4S)(3R,4R) or (3R,4R)(3S,4S) or (3R,4R)(3R,4R) 4-[4-(2-{[1-(bicyclo[1.1.1]pentan-1-yl)-1H-pyrazol-4-yl]amino}-6-chloroquinazolin-7-yl)-3-fluoropiperidin-1-yl]oxolan-3-ol]	9.06
FC(F)(F)Cn1ncc(Nc2ncc3cc(Cl)c(C4CCN(C5COC5)CC4)cc3n2)c1Cl [Ex-8.1, 6-chloro-N-(5-chloro-1-(2,2,2-trifluoroethyl)-1H-pyrazol-4-yl)-7-(1-(oxetan-3-yl)piperidin-4-yl)quinazolin-2-amine]	>9.20
CC1(n2ncc(Nc3ncc4cc(Cl)c(C5CCNCC5)cc4n3)c2Cl)CC1 [Ex-8.9, 6-chloro-N-[5-chloro-1-(1-methylcyclopropyl)-1H-pyrazol-4-yl]-7-(piperidin-4-yl)quinazolin-2-amine]	>9.20
[2H]C([2H])([2H])n1nc(C)cc1Nc1ncc2cc(Cl)c(C3CCN([C@H]4COC[C@H]4O)CC3)cc2n1 (single isomer, unassigned) [Ex-2.69, (3S,4S) or (3R,4R) 4-(4-(6-chloro-2-((3-methyl-1-(methyl-d3)-1H-pyrazol-5-yl)amino)quinazolin-7-yl)piperidin-1-yl)tetrahydrofuran-3-ol]	8.21
CC(n1ncc(Nc2ncc3cc(Cl)c([C@@H]4CCN(C5COC5)C[C@H]4F)cc3n2)c1Cl)C(C)(C)O (single isomer, unassigned) [Ex-4.65, (R)(3S,4S) or (R)(3R,4R) or (S)(3S,4S) or (S)(3R,4R) 3-[5-chloro-4-({6-chloro-7-[3-fluoro-1-(oxetan-3-yl)piperidin-4-yl]quinazolin-2-yl}amino)-1H-pyrazol-1-yl]-2-methylbutan-2-ol]	8.91
Cc1cc2cnc(Nc3cnn(C)c3Cl)nc2cc1[C@@H]1CCN([C@H]2COC[C@H]2O)C[C@H]1F (single isomer, unassigned) [Ex-4.260, (3S,4S)(3S,4S) or (3S,4S)(3R,4R) or (3R,4R)(3S,4S) or (3R,4R)(3R,4R) 4-(4-(2-((5-chloro-1-methyl-1H-pyrazol-4-yl)amino)-6-methylquinazolin-7-yl)-3-fluoropiperidin-1-yl)tetrahydrofuran-3-ol]	8.00
Cc1cc(Nc2ncc3cc(Cl)c([C@@H]4CCN(C5COC5)C[C@H]4F)cc3n2)sn1 (single isomer, unassigned) [Ex-4.50, (3S,4S) or (3R,4R) 6-chloro-7-[3-fluoro-1-(oxetan-3-yl)piperidin-4-yl]-N-(3-methyl-1,2-thiazol-5-yl)quinazolin-2-amine]	>9.20
CO[C@H]1COC[C@H]1N1CC[C@@H](c2cc3nc(Nc4cnn(C5CC5)c4Cl)ncc3cc2C)[C@H](F)C1 (single isomer, unassigned) [Ex-4.250, (3S,4S)(3S,4S) or (3S,4S)(3R,4R) or (3R,4R)(3S,4S) or (3R,4R)(3R,4R) N-(5-chloro-1-cyclopropyl-1H-pyrazol-4-yl)-7-[3-fluoro-1-(4-methoxyoxolan-3-yl)piperidin-4-yl]-6-methylquinazolin-2-amine]	8.22
[2H]C([2H])([2H])n1ncc(Nc2ncc3cc(Cl)c(C4CCN([C@]5(C)COC[C@@H]5O)CC4)cc3n2)c1Cl (single isomer, unassigned) [Ex-1.27, (3S,4S) or (3R,4R)-4-(4-(6-chloro-2-((5-chloro-1-(methyl-d3)-1H-pyrazol-4-yl)amino)quinazolin-7-yl)piperidin-1-yl)-4-methyltetrahydrofuran-3-ol]	>9.20
CC1(CN2CCC(c3cc4nc(Nc5cnn(C6CC6)c5Cl)ncc4cc3Cl)CC2)COC1 [Ex-4.20, 6-chloro-N-(5-chloro-1-cyclopropyl-1H-pyrazol-4-yl)-7-{1-[(3-methyloxetan-3-yl)methyl]piperidin-4-yl}quinazolin-2-amine]	8.11
Cn1ncc(Nc2ncc3cc(Cl)c(C4CCN([C@H]5COC[C@H]5O)CC4)cc3n2)c1Cl (single isomer, unassigned) [Ex-2.66, (3S,4S) or (3R,4R) 4-(4-{6-chloro-2-[(5-chloro-1-methyl-1H-pyrazol-4-yl)amino]quinazolin-7-yl}piperidin-1-yl)oxolan-3-ol]	>9.20
CC(n1ncc(Nc2ncc3cc(Cl)c([C@@H]4CCN(C)C[C@H]4F)cc3n2)c1Cl)C(C)(C)O (single isomer, unassigned) [Ex-4.61, (R)(3S,4S) or (R)(3R,4R) or (S)(3S,4S) or (S)(3R,4R) 3-(5-chloro-4-{[6-chloro-7-(3-fluoro-1-methylpiperidin-4-yl)quinazolin-2-yl]amino}-1H-pyrazol-1-yl)-2-methylbutan-2-ol]	8.80
Cc1c(Nc2ncc3cc(Cl)c(C4CCN(C[C@@H](O)c5ccccc5)CC4)cc3n2)cnn1C1CC1 [Ex-4.193, (1S)-2-(4-{6-chloro-2-[(1-cyclopropyl-5-methyl-1H-pyrazol-4-yl)amino]quinazolin-7-yl}piperidin-1-yl)-1-phenylethan-1-ol]	9.04
CC(C)(O)Cn1ncc(Nc2ncc3cc(Cl)c([C@@H]4CCN(C5COC5)C[C@H]4F)cc3n2)c1Cl (single isomer, unassigned) [Ex-4.43, (3S,4S) or (3R,4R) 1-[5-chloro-4-({6-chloro-7-[3-fluoro-1-(oxetan-3-yl)piperidin-4-yl]quinazolin-2-yl}amino)-1H-pyrazol-1-yl]-2-methylpropan-2-ol]	9.16
Cc1c(Nc2ncc3cc(Cl)c(C4CCN(C[C@H](O)c5cc(F)cc(F)c5)CC4)cc3n2)cnn1C1CC1 [Ex-4.198, (1R)-2-(4-{6-chloro-2-[(1-cyclopropyl-5-methyl-1H-pyrazol-4-yl)amino]quinazolin-7-yl}piperidin-1-yl)-1-(3,5-difluorophenyl)ethan-1-ol]	7.88

Same assay, conditions: G2019S LRRK2, 134 μM ATP (Km ATP), mean values; read-out: LRRK2 pIC50 (converted)

SMILES	IC50 [nM]
C[C@H]1CC(c2cc3nc(Nc4cnn(C5CC5)c4Cl)ncc3cc2Cl)CCN1C1COC1 (single isomer, unassigned) [Ex-1.12, (S) or (R) 6-chloro-N-(5-chloro-1-cyclopropyl-1H-pyrazol-4-yl)-7-(2-methyl-1-(oxetan-3-yl)piperidin-4-yl)quinazolin-2-amine]	0.741
Cc1c(Nc2ncc3cc(Cl)c(C4CCN(C5CCCC5(F)F)CC4)cc3n2)cnn1C1CC1 (single isomer, unassigned) [Ex-1.21, (S) or (R) 6-chloro-N-(1-cyclopropyl-5-methyl-1H-pyrazol-4-yl)-7-[1-(2,2-difluorocyclopentyl)piperidin-4-yl]quinazolin-2-amine]	1.86
Cc1c(Nc2ncc3cc(Cl)c(C4CCN(C5COC(C)(C)C5)CC4)cc3n2)cnn1C1CC1 (single isomer, unassigned) [Ex-4.174, (R) or (S) 6-chloro-N-(1-cyclopropyl-5-methyl-1H-pyrazol-4-yl)-7-[1-(5,5-dimethyloxolan-3-yl)piperidin-4-yl]quinazolin-2-amine]	< 0.631
